Results as given in US8163779B2, “Glucokinase activators” (Takeda San Diego, Inc., priority 2006, dated 2012).

Target: T1, glucokinase (GK) (Homo sapiens, UniProt P35557)
T1 construct: I.D. No. 1 corresponds to residues 12-465 of glucokinase; made in house; host or cells: E. coli DH10b-T1r
T1 sequence (P35557 with tags, fused parts or gaps isoform P35557-2): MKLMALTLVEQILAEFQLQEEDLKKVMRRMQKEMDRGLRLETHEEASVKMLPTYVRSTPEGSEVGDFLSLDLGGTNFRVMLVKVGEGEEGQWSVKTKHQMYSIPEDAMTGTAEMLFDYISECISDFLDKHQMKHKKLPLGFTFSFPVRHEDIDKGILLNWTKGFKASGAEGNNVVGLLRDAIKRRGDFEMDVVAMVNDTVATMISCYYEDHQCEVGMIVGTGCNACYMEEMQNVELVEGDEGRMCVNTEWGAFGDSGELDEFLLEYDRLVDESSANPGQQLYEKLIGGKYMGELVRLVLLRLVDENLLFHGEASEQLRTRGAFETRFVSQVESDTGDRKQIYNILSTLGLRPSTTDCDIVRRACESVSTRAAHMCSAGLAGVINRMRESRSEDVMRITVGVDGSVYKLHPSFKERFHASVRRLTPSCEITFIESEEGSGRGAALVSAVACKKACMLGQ
Assay: enzymatic glucokinase activity assay (ATP consumption, KinaseGlo luminescence)
Type: biochemical
Conditions: recombinant GK residues 12-465; 5 μM ATP, 5 mM Glucose; Kact = concentration that displays 50% of the maximal increase in GK activity; read-out: pKact
How it was run: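 Activation was scored as ATP consumption, quantified by KinaseGlo luciferase luminescence after a 60 min room-temperature reaction. Reactions contained E. coli-expressed, purified GK, 5 μM ATP, 5 mM glucose, 10 mM MgCl2, 0.01% Brij35 and 2% DMSO at pH 7.2; pKact was fitted non-linearly.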

Compound	EC50 [µM]
Cc1cc(S(=O)(=O)C2CCCC2)cc(=O)n1C(CC1CCOCC1)C(=O)Nc1cnccn1 (stereo not drawn) [Example 177, 2-(4-(cyclopentylsulfonyl)-6-methyl-2-oxopyridin-1(2H)-yl)-N-(pyrazin-2-yl)-3-(tetrahydro-2H-pyran-4-yl)propanamide]	> 15.8
Cc1cc(S(=O)(=O)C2CC2)cc(=O)n1C(CC1CCCC1)C(=O)Nc1ncc(Cl)s1 (stereo not drawn) [Example 178, N-(5-chlorothiazol-2-yl)-3-cyclopentyl-2-(4-(cyclopropylsulfonyl)-6-methyl-2-oxopyridin-1(2H)-yl)propanamide]	< 1.58
O=C(Nc1ncc(Cl)s1)C(CC1CCOCC1)n1cc(Cl)c(S(=O)(=O)C2CC2)cc1=O (stereo not drawn) [Example 179, 2-(5-chloro-4-(cyclopropylsulfonyl)-2-oxopyridin-1(2H)-yl)-N-(5-chlorothiazol-2-yl)-3-(tetrahydro-2H-pyran-4-yl)propanamide]	1.58 to 15.8
Cc1cc(S(=O)(=O)C2CC2)cc(=O)n1[C@@H](CC1CCCC1)C(=O)Nc1ccc(C(N)=O)cn1 [Example 180, (S)-6-(3-cyclopentyl-2-(4-(cyclopropylsulfonyl)-6-methyl-2-oxopyridin-1(2H)-yl)propanamido)nicotinamide]	1.58 to 15.8
Cc1cc(S(=O)(=O)C2CCCC2)cc(=O)n1[C@H](CC1CCOCC1)C(=O)Nc1ccc(C(N)=O)cn1 [Example 181, (R)-6-(2-(4-(cyclopentylsulfonyl)-6-methyl-2-oxopyridin-1(2H)-yl)-3-(tetrahydro-2H-pyran-4-yl)propanamido)nicotinamide]	> 15.8
Cc1cc(S(=O)(=O)C2CCCC2)cc(=O)n1[C@@H](CC1CCOCC1)C(=O)Nc1ccc(C(N)=O)cn1 [Example 182, (S)-6-(2-(4-(cyclopentylsulfonyl)-6-methyl-2-oxopyridin-1(2H)-yl)-3-(tetrahydro-2H-pyran-4-yl)propanamido)nicotinamide]	1.58 to 15.8
Cc1cc(S(=O)(=O)C2CC2)cc(=O)n1[C@@H](CC1CCCC1)C(=O)Nc1ncc(Cl)s1 [Example 183, (S)-N-(5-chlorothiazol-2-yl)-3-cyclopentyl-2-(4-(cyclopropylsulfonyl)-6-methyl-2-oxopyridin-1(2H)-yl)propanamide]	< 1.58
O=C(Nc1ncc(Cl)s1)C(CC1CCOCC1)n1cc(Cl)c(S(=O)(=O)C2CCCC2)cc1=O (stereo not drawn) [Example 185, 2-(5-chloro-4-(cyclopentylsulfonyl)-2-oxopyridin-1(2H)-yl)-N-(5-chlorothiazol-2-yl)-3-(tetrahydro-2H-pyran-4-yl)propanamide]	1.58 to 15.8
O=C(Nc1ncc(F)s1)C(CC1CCOCC1)n1cc(Cl)c(S(=O)(=O)C2CCCC2)cc1=O (stereo not drawn) [Example 186, 2-(5-chloro-4-(cyclopentylsulfonyl)-2-oxopyridin-1(2H)-yl)-N-(5-fluorothiazol-2-yl)-3-(tetrahydro-2H-pyran-4-yl)propanamide]	1.58 to 15.8
Cc1cc(S(=O)(=O)C2CCS(=O)(=O)CC2)cc(=O)n1[C@@H](CC1CCCCC1)C(=O)Nc1ncc(Cl)s1 [Example 187, (S)-N-(5-chlorothiazol-2-yl)-2-(4-(1,1-dioxotetrahydrothiopyran-4-ylsulfonyl)-6-methyl-2-oxopyridin-1(2H)-yl)-3-cyclohexyipropanamide]	1.58 to 15.8
Cc1cc(S(=O)(=O)C2CCS(=O)(=O)CC2)cc(=O)n1[C@H](CC1CCCCC1)C(=O)Nc1ncc(Cl)s1 [Example 188, (R)-N-(5-chlorothiazol-2-yl)-2-(4-(1,1-dioxotetrahydrothiopyran-4-ylsulfonyl)-6-methyl-2-oxopyridin-1(2H)-yl)-3-cyclohexylpropanamide]	> 15.8
Cc1cc(S(=O)(=O)c2cccc(F)c2)cc(=O)n1[C@@H](CC1CCOCC1)C(=O)Nc1ncc(F)s1 [Example 189, (S)-2-(4-(3-fluorophenylsulfonyl)-6-methyl-2-oxopyridin-1(2H)-yl)-N-(5-fluorothiazol-2-yl)-3-(tetrahydro-2H-pyran-4-yl)propanamide]	1.58 to 15.8
Cc1cc(S(=O)(=O)c2cccc(F)c2)cc(=O)n1[C@H](CC1CCOCC1)C(=O)Nc1ncc(F)s1 [Example 190, (R)-2-(4-(3-fluorophenylsulfonyl)-6-methyl-2-oxopyridin-1(2H)-yl)-N-(5-fluorothiazol-2-yl)-3-(tetrahydro-2H-pyran-4-yl)propanamide]	> 15.8
Cc1cc(S(=O)(=O)C2CCOCC2)cc(=O)n1[C@@H](CC1CCCC1)C(=O)Nc1ncc(Cl)s1 [Example 191, (S)-N-(5-chlorothiazol-2-yl)-3-cyclopentyl-2-(6-methyl-2-oxo-4-(tetrahydro-2H-pyran-4-ylsulfonyl)pyridin-1(2H)-yl)propanamide]	1.58 to 15.8
Cc1cc(S(=O)(=O)C2CCOCC2)cc(=O)n1[C@H](CC1CCCC1)C(=O)Nc1ncc(Cl)s1 [Example 192, (R)-N-(5-chlorothiazol-2-yl)-3-cyclopentyl-2-(6-methyl-2-oxo-4-(tetrahydro-2H-pyran-4-ylsulfonyl)pyridin-1(2H)-yl)propanamide]	> 15.8
Cc1cc(S(=O)(=O)C2CCOCC2)cc(=O)n1[C@@H](CC1CCCC1)C(=O)Nc1ncc(F)s1 [Example 193, (S)-3-cyclopentyl-N-(5-fluorothiazol-2-yl)-2-(6-methyl-2-oxo-4-(tetrahydro-2H-pyran-4-ylsulfonyl)pyridin-1(2H)-yl)propanamide]	1.58 to 15.8
Cc1cc(S(=O)(=O)C2CCOCC2)cc(=O)n1[C@H](CC1CCCC1)C(=O)Nc1ncc(F)s1 [Example 194, (R)-3-cyclopentyl-N-(5-fluorothiazol-2-yl)-2-(6-methyl-2-oxo-4-(tetrahydro-2H-pyran-4-ylsulfonyl)pyridin-1(2H)-yl)propanamide]	> 15.8
O=C(Nc1ncc(Cl)s1)[C@@H](CC1CCOCC1)n1cc(Cl)c(S(=O)(=O)C2CC2)cc1=O [Example 195, (R)-2-(5-chloro-4-(cyclopropylsulfonyl)-2-oxopyridin-1(2H)-yl)-N-(5-chlorothiazol-2-yl)-3-(tetrahydro-2H-pyran-4-yl)propanamide]	> 15.8
O=C(Nc1ncc(Cl)s1)[C@H](CC1CCOCC1)n1cc(Cl)c(S(=O)(=O)C2CC2)cc1=O [Example 196, (S)-2-(5-chloro-4-(cyclopropylsulfonyl)-2-oxopyridin-1(2H)-yl)-N-(5-chlorothiazol-2-yl)-3-(tetrahydro-2H-pyran-4-yl)propanamide]	1.58 to 15.8
O=C(Nc1ncc(F)s1)[C@@H](CC1CCOCC1)n1cc(Cl)c(S(=O)(=O)C2CC2)cc1=O [Example 197, (R)-2-(5-chloro-4-(cyclopropylsulfonyl)-2-oxopyridin-1(2H)-yl)-N-(5-fluorothiazol-2-yl)-3-(tetrahydro-2H-pyran-4-yl)propanamide]	> 15.8
O=C(Nc1ncc(F)s1)[C@H](CC1CCOCC1)n1cc(Cl)c(S(=O)(=O)C2CC2)cc1=O [Example 198, (S)-2-(5-chloro-4-(cyclopropylsulfonyl)-2-oxopyridin-1(2H)-yl)-N-(5-fluorothiazol-2-yl)-3-(tetrahydro-2H-pyran-4-yl)propanamide]	1.58 to 15.8
